From patent US4994485A, “Thio compounds having fungicidal activity” (Duphar International Research B.V., priority 1986, dated 1991) come the findings set out here.

Assay [1] concerns Pyrenophora graminea. In words: In vitro test on activity against Pyrenophora graminea. The class given is cell-based. Conditions: 48 hours, 20° C., read-out: % growth inhibition of the fungus. The method, then: In vitro test on activity against Pyrenophora graminea.
(§1) The compound to be tested is processed in a culture medium consisting of 1% by weight of glucose, 0.2% by weight of a yeast extract (marmite), 0.5% by weight of a protein (pepton), 2.5% by weight of agar-agar, and 95.8% by weight of water, in petri dishes in concentrations of 3 and 10 ppm. The petri dishes are inoculated with the plant-pathogenic fungus Pyrenophora graminea and then kept at a temperature of 20° C. After 48 hours the growth-inhibiting activity of the compounds is determined visually. For comparison, the known substance (b) (see EXAMPLE XV) is also tested.

Assay [2] deals with Fusarium culmorum. Put plainly: In vitro test on activity against Fusarium culmorum. It is filed as cell-based. Conditions: read-out: growth inhibition of the fungus.
Assay [3] relates to Leptosphaeria nodorum. In words: In vitro test on activity against Leptosphaeria nodorum. The class given is cell-based. Conditions: Parastagonospora nodorum, read-out: growth inhibition of the fungus. As for the experimental part:
as §1
Compounds according to the invention are tested on i Leptosphaeria nodorum in the same manner as described in EXAMPLE XIX.

Assay [4] relates to Pythium splendens. In words: In vitro test on activity against Pythium splendens. Conditions: Globisporangium splendens, read-out: growth inhibition of the fungus. It is filed as cell-based.
For assay [5], the system named is Fusarium culmorum. In words: Protection of seedlings against plant pathogenic seed fungus by seed treatment (wheat). It is filed as in vivo. As to conditions: wheat seed infested with Fusarium culmorum; 3 g composition (10% by weight in kaolin) per kg of seed; after three weeks, 8°-12° C.; untreated 67. The method, then:
Test with respect to the protection of seedlings against a plant pathogenic seed fungus, namely Fusarium culmorum, by means of a seed treatment.
Wheat seed, infested with Fusarium culmorum, is treated with the substance to be tested in the form of a composi tion in a quantity of 3 g per kg of seed. The composition is obtained by pulverising the substance to be tested and then intimately mixing with kaolin in a concentration of 10% by weight. The seed thus treated is sown in a tray containing soil which is placed in a Wisconsin tank with a bottom temperature of 8°-12° C. After three weeks the number of emerged and healthy plants is determined. The emergence of healthy plants from untreated seed serves as control. For comparison, the known substances 2-methylsulphinyl-4-methyl-5-nitrothiazole (a), 2-methylsulphinyl-3-nitrothiophene (b) and 2-ethylsulphinyl-3-nitro-5-acetylthiophene (c) mentioned hereinbefore are also tested. In the examples, the numbers of the compounds refer to the specification.

Assay [6] deals with Pythium spp. Put plainly: Protection of seedlings against plant-pathogenic soil fungus by seed treatment (beet). The class given is in vivo. Conditions: after 3 weeks, 18°-22° C., untreated 72. As for the experimental part:
Test with respect to the protection of seedlings against a plant-pathogenicsoil fungus, namely Pythium spp., by means of a seed treatment.
The compounds to be tested are processed to compositions by pulverising them and then mixing them intimately with kaolin in the desired concentration (see Table B). Beet seed is treated with these compositions in a quantity of 6 g of composition per kg of seed and then sown in trays with soil which was seriously infested with Pythium spp. After 3 weeks in a glass-house at 18°-22° C. and a relative humidity of 70-100%, the percentage of non-emerged and diseased seedlings (damping-off) is determined. The results are recorded in Table B. For comparison, the known substance 2-methylsulphinyl-4-methyl-5-nitrothiazole(a) is also tested.

The mark [7] stands for this setting: 600 mg of active substance per kg of seed.
Where [8] appears, read: 1200 mg of active substance per kg of seed.

Turning to `CC[S+]([O-])c1sc(C(=O)c2ccc(Cl)cc2)c(Cl)c1C#N` (stereo not drawn) [(72), 2-ethylsulphinyl-3-cyano-4-chloro-5-(4-chlorobenzoyl)thiophene], the values for the inhibition at 10 ppm in assay [1] and in assay [4] were 70% and not below 95%, respectively. Moreover, the inhibition at 30 ppm in assay [2] is not below 75%; in assay [3], not below 85%.
Consider `N#Cc1cc(C#N)c([S+]([O-])c2ccccc2)s1` (stereo not drawn) [(32), 2-phenylsulphinyl-3,5-dicyanothiophene], for which the inhibition at 30 ppm is not below 75% in assay [2] and not below 85% in assay [3]. For the same compound, the inhibition at 10 ppm in assay [4] is not below 95%.
In the case of `CC[S+]([O-])c1sc(C(=O)c2ccc(Cl)cc2)c(N)c1C#N` (stereo not drawn) [(66), 2 ethylsulphinyl-3-cyano-4-amino-5-(4-chlorobenzoyl)thiophene], the inhibition at 10 ppm is 84% in assay [1] and not below 95% in assay [4].
Regarding `CC[S+]([O-])c1sc(C(=O)c2ccc(Cl)cc2)cc1C#N` (stereo not drawn) [(47), 2-ethylsulphinyl-3-cyano-5-(4-chlorobenzoyl)thiophene], the inhibition at 10 ppm in assay [1] is 74%; in assay [4], not below 95%. In addition, the inhibition at 30 ppm was not below 75% in assay [2] and not below 85% in assay [3].
Regarding `CCOc1c(C#N)sc([S+]([O-])CC)c1C#N` (stereo not drawn) [(14), 2-ethylsulphinyl-3,5-dicyano-4-ethoxythiophene], the “Percentage of emerged, healthy plants” value in assay [5] was found to be 87%. Besides, the figures for the percentage damping-off in assay [6] (setting [7]) and in assay [6] (setting [8]) were 23% and 20%, respectively. The inhibition at 30 ppm in assay [2] is not below 75%; in assay [3], not below 85%. Further, the inhibition at 10 ppm in assay [4] was not below 95%.
With `CCCC[S+]([O-])c1sc(C(C)=O)c(Br)c1C#N` (stereo not drawn) [(86), 2-n-butylsulphinyl-3-cyano-4-bromo-5-acetylthiophene], the inhibition at 10 ppm is 76% in assay [1] and not below 95% in assay [4]. Further, the figures for the inhibition at 30 ppm in assay [2] and in assay [3] were not below 75% and not below 85%, respectively.
Regarding `COc1c(C#N)sc([S+](C)[O-])c1C#N` (stereo not drawn) [(12), 2-methylsulphinyl-3,5-dicyano-4-methoxythiophene], in assay [5], the “Percentage of emerged, healthy plants” value is listed as 93%. In addition, the percentage damping-off in assay [6] (setting [7]) and in assay [6] (setting [8]) was 0% throughout. Besides, the figures for the inhibition at 30 ppm in assay [2] and in assay [3] were not below 75% and not below 85%, respectively. The inhibition at 10 ppm in assay [4] is not below 95%.
Turning to `CC(=O)c1sc([S+](C)[O-])c(C#N)c1-c1ccc(Cl)cc1` (stereo not drawn) [(6), 2-methylsulphinyl 3-cyano-4-(4-chlorophenyl)-5-acetylthiophene], in assay [1] (3 ppm), the inhibition at 3 ppm turned out to be 54%. The inhibition at 10 ppm in assay [1] was 77%; in assay [4], not below 95%.
Consider `N#Cc1sc([S+]([O-])Cc2ccccc2)c(C#N)c1Cl` (stereo not drawn) [(78), 2-benzylsulphinyl-3,5-dicyano-4-chlorothiophene], for which the inhibition at 10 ppm in assay [1] is 86%; in assay [4], not below 95%. The inhibition at 30 ppm in assay [2] is not below 75%.
For the compound `C[S+]([O-])c1sc(C(=O)c2ccccc2)c(Cl)c1C#N` (stereo not drawn) [(31), 2-methylsulphinyl-3-cyano-4-chloro 5-benzoylthiophene], the inhibition at 10 ppm in assay [1] was 77%; in assay [4], not below 95%. In addition, the results for the inhibition at 30 ppm in assay [2] and in assay [3] were not below 75% and not below 85%, respectively.
On to `CCCC[S+]([O-])c1sc(C#N)c(OC)c1C#N` (stereo not drawn) [(41), 2-n-butylsulphinyl-3,5-dicyano 4-methoxythiophene], for which the inhibition at 30 ppm in assay [2] was not below 75%; in assay [3], not below 85%. Moreover, in assay [4], the inhibition at 10 ppm was not below 95%.
Take `N#Cc1cc(C#N)c(S(=O)(=O)c2ccccc2)s1` [(45), 2-phenylsulphonyl-3,5-dicyanothiophene]: the inhibition at 30 ppm in assay [2] was not below 75%; in assay [3] it was not below 85%. Moreover, in assay [4], the inhibition at 10 ppm is not below 95%.
`CCCC[S+]([O-])c1sc(C(C)=O)c(N)c1C#N` (stereo not drawn) [(58), 2-n-butylsulphinyl-3 cyano-4-amino-5-acetylthiophene]: the inhibition at 30 ppm in assay [2] was not below 75%; in assay [3], not below 85%. In addition, in assay [4], the inhibition at 10 ppm is not below 95%.
Turning to `CCCCS(=O)(=O)c1sc(C#N)c(Br)c1C#N` [(89), 2-n-butylsulphonyl 3,5-dicyano-4-bromothiophene], the inhibition at 30 ppm in assay [2] was not below 75%; in assay [3], not below 85%. In addition, the inhibition at 10 ppm in assay [4] is not below 95%.
Turning to `CCC[S+]([O-])c1sc(C(=O)c2ccccc2)c(N)c1C#N` (stereo not drawn) [(67), 2-n-propylsulphinyl-3-cyano-4-amino-5-benzoylthiophene], the figures for the inhibition at 30 ppm in assay [2] and in assay [3] were not below 75% and not below 85%, respectively. Also, in assay [4], the inhibition at 10 ppm was not below 95%.
The corresponding values for `CCC[S+]([O-])c1sc(C#N)cc1C#N` (stereo not drawn) [(40), 2-n-propylsulphinyl 3,5-dicyanothiophene] are not below 75%, not below 85% and not below 95%.
As to `CCSC(=C(C#N)c1ccc(Cl)cc1)[S+]([O-])CC` (stereo not drawn) [(53), α-cyano-β-ethylsulphinyl-β-ethylthio-4-chlorostyrene], the inhibition at 10 ppm in assay [1] stood at 83%. Moreover, the inhibition at 30 ppm in assay [2] is not below 75%; in assay [3] it was not below 85%.
Regarding `CC(=O)c1cc(C#N)c([S+](C)[O-])s1` (stereo not drawn) [(1), 2-methylsulphinyl-3-cyano-5-acetylthiophene], in assay [5], the “Percentage of emerged, healthy plants” value was 91%. Also, the percentage damping-off is given as 8% in assay [6] (setting [7]) and 7% in assay [6] (setting [8]). The inhibition at 10 ppm in assay [4] was not below 95%.
`CCCC[S+]([O-])c1sc(C#N)c(Br)c1C#N` (stereo not drawn) [(79), 2-n-butylsulphinyl-3,5-dicyano-4-bromothiophene]: the results for the inhibition at 10 ppm in assay [1] and in assay [4] were 80% and not below 95%, respectively. Moreover, in assay [2], the inhibition at 30 ppm is not below 75%.
With `CC[S+]([O-])c1sc(C#N)c(Oc2ccccc2)c1C#N` (stereo not drawn) [(94), 2-ethylsulphinyl-3,5-dicyano-4-phenoxythiophene], the inhibition at 10 ppm in assay [1] was 70%; in assay [4], not below 95%. Also, the inhibition at 30 ppm in assay [3] is not below 85%.
In the case of `COc1c(C(=O)c2ccccc2)sc([S+](C)[O-])c1C#N` (stereo not drawn) [(74), 2-methylsulphinyl-3-cyano-4-methoxy-5-benzoylthiophene], the inhibition at 30 ppm was not below 75% in assay [2] and not below 85% in assay [3]. Further, the inhibition at 10 ppm in assay [4] was not below 95%.
`N#Cc1sc([S+]([O-])c2ccccc2)c(C#N)c1Cl` (stereo not drawn) [(82), 2 phenylsulphinyl-3,5-dicyano-4-chlorothiophene]: the inhibition at 10 ppm is 80% in assay [1] and not below 95% in assay [4]. Also, the inhibition at 30 ppm in assay [2] is not below 75%.
Regarding `C[S+]([O-])c1sc(C#N)c(-c2ccc(Cl)cc2)c1C#N` (stereo not drawn) [(35), 2-methylsulphinyl-3,5-dicyano-4-(4-chlorophenyl)thiophene], the inhibition at 10 ppm is 76% in assay [1] and not below 95% in assay [4]. The values for the inhibition at 30 ppm in assay [2] and in assay [3] were not below 75% and not below 85%, respectively.
As to `CC[S+]([O-])c1sc(C(C)=O)cc1C#N` (stereo not drawn) [(9), 2-ethylsulphinyl-3-cyano-5-acetylthiophene], the “Percentage of emerged, healthy plants” value in assay [5] stood at 85%. Moreover, the figures for the percentage damping-off in assay [6] (setting [7]) and in assay [6] (setting [8]) were 15% and 11%, respectively. Besides, the inhibition at 30 ppm in assay [3] was not below 85%. Besides, the inhibition at 10 ppm in assay [4] was not below 95%.
Consider `C[S+]([O-])c1sc(C(=O)c2ccccc2)cc1C#N` (stereo not drawn) [(51), 2-methylsulphinyl-3-cyano-5-benzoylthiophene], for which the inhibition at 10 ppm in assay [1] turned out to be 71%. In addition, the inhibition at 30 ppm in assay [2] was not below 75%; in assay [3] it was not below 85%.
Consider `CC[S+]([O-])c1sc(C(C)=O)c(OC)c1C#N` (stereo not drawn) [(23), 2-ethylsulphinyl-3-cyano-4-methoxy-5-acetylthiophene], for which the results for the inhibition at 30 ppm in assay [2] and in assay [3] were not below 75% and not below 85%, respectively.

Usually inhibition stands for the relative decrease from the control value, in per cent.
